Patent US8815503B2, “Compositions and methods for immunostimulatory RNA oligonucleotides” (Rheinische Friedrich-Wilhelms-Universitat Bonn, priority 2005, dated 2014)

Test system: PBMC
Experiment: 193 ssRNA 4mer-motif library screen: IL-12 (IL-12p40) production in PBMC of six donors, poly-L-Arg complexation, ELISA at 44 hours, IL-12 index and adjusted IL-12 index
Format: cell-based, human
Parameters: key to Adjusted IL-12 index Mean: IL-12 index (ratio to 9.2sense) minus donor mean, averaged over 6 donors
Conditions: for Adjusted IL-12 index Mean: 193 ssRNA oligonucleotide library, data from six individual donors summarized, ascending order
Protocol: FIG. 9: PBMC of six different healthy donors were isolated and stimulated with poly-L-arginine complexed ssRNA oligonucleotides in duplicates. 44 hours after stimulation IL-12p40 production was assessed in supernatant via ELISA. For all tested ssRNA oligonucleotides (table 3), the mean values of the measured duplicates were normalized to the positive control ssRNA oligonucleotide 9.2sense (5′-AGCUUAACCUGUCCUUCAA (SEQ ID NO: 194)) by dividing the mean value of tested oligonucleotide by the mean value of 9.2sense (=IL-12 index of a given oligonucleotide). Next, all individual IL-12 indices were adjusted to the mean value of all IL-12 indices by subtracting the mean value of all IL-12 indices from the individual IL-12 index of a given oligonucleotide (=adjusted IL-12 index). Data from six individual donors were summarized and were assorted in ascending order displaying the corresponding SEM (for a complete listing including numerical data see table 4). FIG. 9A discloses SEQ ID NOS 460-509, respectively, in order of appearance. FIG. 9B discloses SEQ ID NOS 510-559, respectively, in order of appearance. FIG. 9C discloses SEQ ID NOS 560-609, respectively, in order of appearance. FIG. 9D discloses SEQ ID NOS 610-652, respectively, in order of appearance.
All 193 ssRNA oligonucleotides were tested on PBMC of six individual healthy donors using poly-L-Arg for complexation. At 44 hours after stimulation with RNA oligonucleotides, supernatants were collected and IL-12 production was measured by ELISA. Prior to statistical analysis the raw data were processed as follows: for each cell culture plate the mean IL-12 value of the experimental duplicates for each tested ssRNA oligonucleotide were normalized to the ssRNA oligonucleotide RNA9.2sense (5′-AGCUUAACCUGUCCUUCAA-3′ (SEQ ID NO: 194)). This standard RNA oligonucleotide was included as a positive control on all cell culture plates. Normalization was performed by calculating the ratio of IL-12 induced by the tested oligonucleotide and IL-12 induced by the standard oligonucleotide RNA9.2sense. Thus, for each tested oligonucleotide in an individual donor a mean ratio of IL-12 induction was obtained. In the following, this mean of the ratios is referred to as IL-12 index (one value of IL-12 index per donor). […] The corresponding IL-12 index of oligonucleotide ANP175 for donor 3 was calculated to be 1.90 (=1725 pg/ml divided by 908 pg/ml).
Next, the means of all IL-12 indices for every individual donor were calculated. Then the adjusted IL-12 indices were calculated as IL-12 index minus the mean of all IL-12 indices of one individual donor. […] The adjusted IL-12 index of ANP175 was calculated: 1.90 minus 0.44=1.46. The adjusted IL-12 indices from all six donors were summarized by calculating the means and the corresponding standard error of mean. The data are depicted in ascending order (FIG. 9A, B, C, D). The adjusted IL-12 indices of the top thirty ssRNA oligonucleotides of all six donors were compared using a two-tailed Student's t-test (FIG. 10). For most combinations tested, a significant difference was observed when the interval between the analyzed pairs was at least eight or nine places in the assortment.

Substance | Adjusted IL-12 index Mean | adjusted IL-12 index (summarized from all six donors)
AAAAAAACCACAAAAAAAA (RNA, backbone not given here) [ANP-Oligo 062] | −0.66 | –
AAAAAAAUAUUAAAAAAAA (RNA, backbone not given here) [ANP-Oligo 157] | 0.46 | –
AAAAAAAAGAUAAAAAAAA (RNA, backbone not given here) [ANP-Oligo 028] | −0.32 | –
AAAAAAAAGUGAAAAAAAA (RNA, backbone not given here) [ANP-Oligo 036] | −0.12 | –
AAAAAAAAUCUAAAAAAAA (RNA, backbone not given here) [ANP-Oligo 043] | −0.22 | –
AAAAAAACUAUAAAAAAAA (RNA, backbone not given here) [ANP-Oligo 088] | 0.3 | –
AAAAAAACCGCAAAAA4AA (DNA AAAAAAACCGCAAAAAAAA; RNA, backbone not given here) [ANP-Oligo 068] | −0.56 | –
AAAAAAACGUUAAAAAAAA (RNA, backbone not given here) [ANP-Oligo 085] | 0.57 | –
AAAAAAAGAAUAAAAAAAA (RNA, backbone not given here) [ANP-Oligo 100] | 0.01 | –
AAAAAAAUACUAAAAAAAA (RNA, backbone not given here) [ANP-Oligo 151] | 0.3 | –
AAAAAAAGUAUAAAAAAAA (RNA, backbone not given here) [ANP-Oligo 136] | 1.04 | –
AAAAAAAAAAAAAAAAAAA (RNA, backbone not given here) [ANP-Oligo 001] | −0.48 | –
AAAAAAAGGUGAAAAAAAA (RNA, backbone not given here) [ANP-Oligo 132] | 0.47 | –
AAAAAAAGGUUAAAAAAAA (RNA, backbone not given here) [ANP-Oligo 133] | 1.51 | –
AAAAAAACCGUAAAAAAAA (RNA, backbone not given here) [ANP-Oligo 070] | −0.16 | –
AAAAAAAUCUUAAAAAAAA (RNA, backbone not given here) [ANP-Oligo 169] | 0.67 | –
AAAAAAAAGACAAAAAAAA (RNA, backbone not given here) [ANP-Oligo 026] | −0.6 | –
AAAAAAAAGGGAAAAAAAA (RNA, backbone not given here) [ANP-Oligo 033] | −0.59 | –
AAAAAAACACUAAAAAAAA (RNA, backbone not given here) [ANP-Oligo 055] | −0.53 | –
AAAAAAACUCGAAAAAAAA (RNA, backbone not given here) [ANP-Oligo 090] | −0.54 | –

Substance | Adjusted IL-12 index Mean | adjusted IL-12 index (summarized from all six donors)
AAAAAAAGGCGAAAAAAAA (RNA, backbone not given here) [ANP-Oligo 126] | −0.54 | –
AAAAAAAUCUGAAAAAAAA (RNA, backbone not given here) [ANP-Oligo 168] | 0.45 | –
AAAAAAAUGACAAAAAAAA (RNA, backbone not given here) [ANP-Oligo 170] | 0.86 | –
AAAAAAACGGCAAAAAAAA (RNA, backbone not given here) [ANP-Oligo 080] | −0.65 | –
AAAAAAAAUUGAAAAAAAA (RNA, backbone not given here) [ANP-Oligo 048] | −0.35 | –
AAAAAAAUAAUAAAAAAAA (RNA, backbone not given here) [ANP-Oligo 148] | 0.7 | –
AAAAAAAGGGCAAAAAAAA (RNA, backbone not given here) [ANP-Oligo 128] | −0.64 | –
AAAAAAAGACGAAAAAAAA (RNA, backbone not given here) [ANP-Oligo 102] | −0.64 | –
AAAAAAAGAUCAAAAAAAA (RNA, backbone not given here) [ANP-Oligo 107] | −0.2 | –
AAAAAAACUCCAAAAAAAA (RNA, backbone not given here) [ANP-Oligo 089] | −0.42 | –
AAAAAAAGGCUAAAAAAAA (RNA, backbone not given here) [ANP-Oligo 127] | 0.11 | –
AAAAAAAAGAAAAAAAAAA (RNA, backbone not given here) [ANP-Oligo 003] | −0.63 | –
AAAAAAAGUCUAAAAAAAA (RNA, backbone not given here) [ANP-Oligo 139] | 0.05 | –
AAAAAAAUGGGAAAAAAAA (RNA, backbone not given here) [ANP-Oligo 177] | −0.35 | –
AAAAAAAGUUUAAAAAAAA (RNA, backbone not given here) [ANP-Oligo 145] | 1.32 | –
AAAAAAAACUAAAAAAAAA (RNA, backbone not given here) [ANP-Oligo 007] | −0.56 | –
AAAAAAAGACUAAAAAAAA (RNA, backbone not given here) [ANP-Oligo 103] | −0.25 | –
AAAAAAAGGUCAAAAAAAA (RNA, backbone not given here) [ANP-Oligo 131] | 0.12 | –
AAAAAAAGAUGAAAAAAAA (RNA, backbone not given here) [ANP-Oligo 108] | 0.08 | –
AAAAAAAGCCGAAAAAAAA (RNA, backbone not given here) [ANP-Oligo 114] | −0.58 | –

Substance | Adjusted IL-12 index Mean | adjusted IL-12 index (summarized from all six donors)
AAAAAAAGCGCAAAAAAAA (RNA, backbone not given here) [ANP-Oligo 116] | −0.58 | –
AAAAAAAACCAAAAAAAAA (RNA, backbone not given here) [ANP-Oligo 005] | −0.62 | –
AAAAAAAAUAGAAAAAAAA (RNA, backbone not given here) [ANP-Oligo 039] | −0.05 | –
AAAAAAAUGAUAAAAAAAA (RNA, backbone not given here) [ANP-Oligo 172] | 1.92 | –
AAAAAAACGCGAAAAAAAA (RNA, backbone not given here) [ANP-Oligo 078] | −0.59 | –
AAAAAAACCCUAAAAAAAA (RNA, backbone not given here) [ANP-Oligo 067] | −0.3 | –
AAAAAAAGCCUAAAAAAAA (RNA, backbone not given here) [ANP-Oligo 115] | 0.15 | –
AAAAAAAUGGUAAAAAAAA (RNA, backbone not given here) [ANP-Oligo 178] | 3.26 | 3.26
AAAAAAAGUACAAAAAAAA (RNA, backbone not given here) [ANP-Oligo 134] | 0.42 | –
AAAAAAAGGGUAAAAAAAA (RNA, backbone not given here) [ANP-Oligo 130] | −0.44 | –
AAAAAAAUCGCAAAAAAAA (RNA, backbone not given here) [ANP-Oligo 164] | −0.1 | –
AAAAAAAUCCGAAAAAAAA (RNA, backbone not given here) [ANP-Oligo 162] | −0.5 | –
AAAAAAACGACAAAAAAAA (RNA, backbone not given here) [ANP-Oligo 074] | −0.6 | –
AAAAAAACAUGAAAAAAAA (RNA, backbone not given here) [ANP-Oligo 060] | −0.46 | –
AAAAAAAAGCAAAAAAAAA (RNA, backbone not given here) [ANP-Oligo 008] | −0.61 | –
AAAAAAACUGUAAAAAAAA (RNA, backbone not given here) [ANP-Oligo 094] | 0.9 | –
AAAAAAAGCUGAAAAAAAA (RNA, backbone not given here) [ANP-Oligo 120] | −0.38 | –
AAAAAAAUGCGAAAAAAAA (RNA, backbone not given here) [ANP-Oligo 174] | 0.28 | –
